Values after ≈ are worked out from the molar mass of the structure shown.
Assays:
Assay in all cases: MIC, liquid turbidimetric microtiter broth method
Assay type in all cases: cell-based
[1] = system: Escherichia coli MB 4926; details: MB4926
Description: (§1) The compounds of formula (II) will show antibacterial activity against a range of aerobic Gram positive and negative bacteria as shown in the following Table. The assay employs a liquid turbidimetric microtiter method for determination of the minimum inhibitory concentration (MIC) in broth media. […] The MIC is generally not an absolute value but rather a concentration range that falls within a two-fold dilution limit. Generally, twelve two-fold dilutions of the test compound are employed with the initial concentration set at 128 mcg/ml.

[2] = system: Steptococcus pneumoniae CL 2883
Description: as §1

[3] = system: Streptococcus viridans CL 2943; details: CL2943
Description: as §1

Compound CC[C@H]1OC(=O)[C@H](C)[C@@H](O[C@H]2C[C@@](C)(OC)[C@@H](O)[C@H](C)O2)[C@H](C)[C@@H](O[C@@H]2O[C@H](C)C[C@H](N(C)C)[C@H]2O)[C@](C)(O)C[C@@H](C)NC(=O)[C@H](C)[C@@H](O)[C@]1(C)O [8aaza-8a-homoerythromycin A, 8a-Aza-8a-homoerythromycin A] has an MIC [1] of 4 µg/mL (≈ 5.34 µM), an MIC [2] of at most 0.06 µg/mL and an MIC [3] of 4 µg/mL (≈ 5.34 µM).

From US5202434A, “8a-aza-8a-homoerythromycin lactams” (Merck & Co., Inc., priority 1992, dated 1993)
